What was measured:
[1] = target: T1, MC5 (Homo sapiens, UniProt P33032); assay: Stimulation of cAMP, MC5; assay type: cell-based
Method: (§1) Test 3. cAMP The stimulation of cAMP was carried out essentially as described by Schiöth et al, Br J Pharmacol 1998; 124; 75-82.

[2] = target: MC1 (Homo sapiens, UniProt Q01726); assay: Stimulation of cAMP, MC1; assay type: cell-based
Method: as §1

[3] = target: T2, MC4 (Homo sapiens, UniProt P32245); assay: Stimulation of cAMP, MC4; assay type: cell-based
T2 sequence (P32245 whole entry): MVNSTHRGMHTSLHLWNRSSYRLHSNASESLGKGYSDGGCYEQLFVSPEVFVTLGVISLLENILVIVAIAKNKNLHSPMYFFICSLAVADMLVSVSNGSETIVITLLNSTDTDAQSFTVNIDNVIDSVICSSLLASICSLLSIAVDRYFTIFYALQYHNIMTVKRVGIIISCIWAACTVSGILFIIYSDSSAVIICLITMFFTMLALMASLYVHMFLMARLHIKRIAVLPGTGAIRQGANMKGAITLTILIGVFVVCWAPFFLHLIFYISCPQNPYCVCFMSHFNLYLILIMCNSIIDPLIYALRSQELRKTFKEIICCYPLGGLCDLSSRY
Method: as §1

[4] = target: MC1-Receptor (Mus musculus, UniProt Q01727); assay: Affinity for the MC1-receptor, binding assay with I125-NDP-αMSH as ligand; conditions: read-out: Affinity for MC-receptors Ki MC1
Sequence of MC1-Receptor (Q01727 whole entry): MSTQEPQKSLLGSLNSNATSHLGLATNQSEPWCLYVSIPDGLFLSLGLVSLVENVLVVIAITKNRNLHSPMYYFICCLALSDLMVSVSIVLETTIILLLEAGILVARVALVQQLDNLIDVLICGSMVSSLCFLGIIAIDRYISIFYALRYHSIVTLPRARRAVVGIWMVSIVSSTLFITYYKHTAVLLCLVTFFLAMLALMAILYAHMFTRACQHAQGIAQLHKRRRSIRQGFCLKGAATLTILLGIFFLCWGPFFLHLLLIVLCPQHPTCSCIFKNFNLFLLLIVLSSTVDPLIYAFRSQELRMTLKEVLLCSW
Method: Test 1. Affinity for the MC1-Receptor
The binding assay was carried out essentially as described by Lunec et al, Melanoma Res 1992; 2; 5-12, using I^125-NDP-αMSH as ligand.

[5] = target: T3, MC3 (Homo sapiens, UniProt P41968); assay: Stimulation of cAMP, MC3; assay type: cell-based
T3 sequence (P41968 whole entry): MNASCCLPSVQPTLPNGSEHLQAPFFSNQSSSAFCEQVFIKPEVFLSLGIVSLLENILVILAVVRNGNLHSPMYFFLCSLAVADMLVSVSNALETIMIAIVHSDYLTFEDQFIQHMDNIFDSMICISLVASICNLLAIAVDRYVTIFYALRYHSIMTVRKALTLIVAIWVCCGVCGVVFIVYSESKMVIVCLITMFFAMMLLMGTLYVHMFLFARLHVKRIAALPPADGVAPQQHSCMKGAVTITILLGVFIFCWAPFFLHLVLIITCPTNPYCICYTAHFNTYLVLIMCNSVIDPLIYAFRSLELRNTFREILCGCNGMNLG
Method: as §1

[6] = target: T1, MC5; assay: Affinity for the MC5-receptors, binding assay with I125-NDP-αMSH as ligand; conditions: read-out: Affinity for MC-receptors Ki MC5
Method: (§2) Test 2. Affinity for the MC3-Receptors, the MC4-Receptors and the MC5-Receptors
(§3) The binding assays were carried out essentially as described by Szardenings et al, J Biol Chem 1997; 272; 27943-27948 and Schiöth et al, FEBS Lett 1997; 410; 223-228 using I^125-NDP-αMSH as ligand.

[7] = target: T2, MC4; assay: Affinity for the MC4-receptors, binding assay with I125-NDP-αMSH as ligand; conditions: read-out: Affinity for MC-receptors Ki MC4
Method: as §2, §3

[8] = target: T3, MC3; assay: Affinity for the MC3-receptors, binding assay with I125-NDP-αMSH as ligand; conditions: read-out: Affinity for MC-receptors Ki MC3
Method: as §2, §3

T1 sequence (P33032 whole entry): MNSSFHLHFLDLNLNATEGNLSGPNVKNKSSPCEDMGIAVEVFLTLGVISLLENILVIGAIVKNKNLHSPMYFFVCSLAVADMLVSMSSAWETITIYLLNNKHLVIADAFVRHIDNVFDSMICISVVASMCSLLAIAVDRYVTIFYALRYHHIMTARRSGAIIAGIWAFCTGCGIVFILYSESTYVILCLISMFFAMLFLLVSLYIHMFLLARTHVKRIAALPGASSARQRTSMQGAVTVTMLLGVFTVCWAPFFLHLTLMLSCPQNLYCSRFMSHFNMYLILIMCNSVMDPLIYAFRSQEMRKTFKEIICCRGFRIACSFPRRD
Sequence of MC1 (Q01726 whole entry): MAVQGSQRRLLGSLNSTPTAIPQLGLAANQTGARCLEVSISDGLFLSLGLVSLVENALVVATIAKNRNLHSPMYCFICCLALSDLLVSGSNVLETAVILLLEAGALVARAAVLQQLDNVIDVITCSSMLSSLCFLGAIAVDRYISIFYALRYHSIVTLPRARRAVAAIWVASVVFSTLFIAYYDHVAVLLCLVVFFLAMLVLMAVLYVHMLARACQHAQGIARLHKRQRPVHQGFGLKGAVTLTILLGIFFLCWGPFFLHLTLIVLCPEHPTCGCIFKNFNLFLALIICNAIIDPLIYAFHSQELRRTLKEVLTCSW

| SMILES | Influence on cAMP MC5c [1] | Influence on cAMP MC1c [2] | Influence on cAMP MC4c [3] | Ki [4] [µM] | Influence on cAMP MC3c [5] | Ki [6] [µM] | Ki [7] [µM] | Ki [8] [µM] |
| --- | --- | --- | --- | --- | --- | --- | --- | --- |
| CCOC(=O)c1cccc(C=NNC(=N)N)c1Cl.O=C(O)C(F)(F)F [1:3, N-(2-Chloro-(3-ethoxycarbonyl)-benzylideneamino)guanidine trifluoroacetate] | 0 | 0 | 7 | 3.4 | 0 | – | – | – |
| CSc1c(Cl)cccc1C=NNC(=N)N.Cl [Compound 1:1, N-(2-Methylthio-3-chlorobenzylideneamino)guanidine hydrochloride] | 1 | 1 | 13 | 0.7 | 2 | 19.7 | 0.6 | 19.7 |

— patent publication US8372878B2, “Aminoguanidines as melanocortin receptor ligands” (Anamar AB, priority 2006, dated 2013)
